# Structures can show the parent of a compound that is named as a salt. *1 amine or outer side, *2 acyl side, *3 side chain or, on linkers, in order; H or OH if unused. Where a SMILES comes first, the peptide text is derived from it. Bridges are numbered along the chain shown (N, C = ends). [ ]: non-standard residue; d: D form. The star is where a group is joined. ξ: configuration not given here. GABA(4S-Me) = C[C@@H](CCC(=O)[*:2])N[*:1]; ξHexahydromandeloyl = O=C(C(O)C1CCCCC1)*; X8 = O=C([C@H]1CC[C@H](O)CC1)*; Thr(3ξ) = CC(O)[C@H](N)C(=O)O; Propanoyl(3-OH) = O=C(CCO)*; X5 = CC(C)[C@H](N)CCC(=O)*; Octanoyl = CCCCCCCC(=O)*; Dab = NCC[C@H](N)C(=O)O; X4 = CN(C)CCCC(=O)*; X6 = O=C(CCCCCCCO)*
# Assays:
# Test in all cases: MIC susceptibility testing, broth microdilution in CaMHB
# K. pneumoniae NCTC7427 = type: cell-based, Klebsiella pneumoniae
# Method: (§1) To evaluate the potency and spectrum of the compounds, susceptibility testing was performed against four strains of each of the four Gram negative pathogens, Escherichia coli, Pseudomonas aeruginosa, Klebsiella pneumoniae and Acinetobacter baumannii.
# (§2) The day before testing, 3 to 4 colonies were picked from fresh Mueller-Hinton Agar (MHA) plate and transferred into 10 mL of Cation adjusted MHB (CaMHB). Cultures were incubated at 37° C. 250 rpm for 18-20 hours before being diluted 100-fold in fresh CaMHB. The subcultures were grown further until the OD600 reached 0.2-0.3 corresponding to […]. The actively growing cultures were diluted 100-fold in fresh medium and used for the inoculum.
# (§3) The assays were performed in duplicate.
# (§4) Data was obtained under similar conditions to Table 4 except that different batches of cation-adjusted Muller-Hinton broth were used. The MIC values for these compounds are compared with those values obtained for Polymyxin B, Colistin Sulphate, CB-182,804 and NAB739 (as the TFA salt). CB-182,804 is a polymyxin decapeptide derivative with an aryl urea substituent at the N-terminus, which has been claimed to have lower toxicity than Polymyxin B (compound 5 in WO 2010/075416. See page 37). NAB739 has been described previously by Vaara et al.
# A. baumannii NCTC7844 = type: cell-based, Acinetobacter baumannii
# Method: as §1, §2, §3, §4
# E. coli NCTC9001 = type: cell-based, Escherichia coli
# Method: as §1, §2, §3, §4
# E. coli ATCC25922 = type: cell-based, Escherichia coli
# Method: as §1, §2, §3, §4
# E. coli ATCC700928 = type: cell-based, Escherichia coli
# Method: as §1, §2, §3, §4
# P. aeruginosa ATCC10145 = type: cell-based, Pseudomonas aeruginosa
# Method: as §1, §2, §3, §4
# P. aeruginosa ATCC27853 = type: cell-based, Pseudomonas aeruginosa
# Method: as §1, §2, §3, §4
# [1] = test system: P. aeruginosa ATCCCRM-9027; type: cell-based, Pseudomonas aeruginosa
# Method: as §1, §2, §3, §4
# K. pneumoniae NCTC8172 = type: cell-based, Klebsiella pneumoniae; details: Table 4A, different batches of cation-adjusted Muller-Hinton broth
# Method: as §1, §2, §3, §4
# K. pneumoniae ATCC 4352 = type: cell-based, Klebsiella pneumoniae; details: K. pneumoniae ATCC4352; Table 4A, different batches of cation-adjusted Muller-Hinton broth
# Method: as §1, §2, §3, §4
# [2] = test system: K. pneumoniae ATCCBAA-1706; type: cell-based, Klebsiella pneumoniae; details: Table 4A, different batches of cation-adjusted Muller-Hinton broth
# Method: as §1, §2, §3, §4
# A. baumannii ATCC19606 = type: cell-based, Acinetobacter baumannii; details: Table 4A, different batches of cation-adjusted Muller-Hinton broth
# Method: as §1, §2, §3, §4
# A. baumannii ATCCBAA-747 = type: cell-based, Acinetobacter baumannii; details: Table 4A, different batches of cation-adjusted Muller-Hinton broth
# Method: as §1, §2, §3, §4
# A. baumannii NCTC13423 = type: cell-based, Acinetobacter baumannii; details: Table 4A, different batches of cation-adjusted Muller-Hinton broth
# Method: as §1, §2, §3, §4
# E. coli NCTC12900 = type: cell-based, Escherichia coli; details: Table 4A, different batches of cation-adjusted Muller-Hinton broth
# Method: as §1, §2, §3, §4
# P. aeruginosa ATCC 9721 = type: cell-based, Pseudomonas aeruginosa; details: P. aeruginosa ATCC9721; Table 4A, different batches of cation-adjusted Muller-Hinton broth
# Method: as §1, §2, §3, §4
# [3] = Table 4A, different batches of cation-adjusted Muller-Hinton broth
# [4] = P. aeruginosa AATCCRM 9027, Table 4A, different batches of cation-adjusted Muller-Hinton broth
Compound,MIC (K. pneumoniae NCTC8172) [micrograms/mL],MIC (K. pneumoniae ATCC 4352) [micrograms/mL],MIC (K. pneumoniae NCTC7427; [3]) [micrograms/mL],MIC (A. baumannii ATCC19606) [micrograms/mL],MIC (A. baumannii ATCCBAA-747) [micrograms/mL],MIC (A. baumannii NCTC7844; [3]) [micrograms/mL],MIC (A. baumannii NCTC13423) [micrograms/mL],MIC (E. coli ATCC25922; [3]) [micrograms/mL],MIC (P. aeruginosa ATCC10145; [3]) [micrograms/mL],MIC (P. aeruginosa ATCC27853; [3]) [micrograms/mL],"MIC [1, 4] [micrograms/mL]",also measured
"CC(C)C[C@@H]1NC(=O)[C@@H](Cc2ccccc2)NC(=O)[C@H](CCN)NC(=O)[C@@H](NC(=O)[C@H](CCN)NC(=O)[C@@H](NC(=O)CCCCCCCO)C(C)O)CCNC(=O)[C@H](C(C)O)NC(=O)[C@H](CCN)NC(=O)[C@H](CCN)NC1=O (some centres unmarked) [Example 8, 8-Hydroxyoctanoyl Polymyxin B Nonapeptide, Sulphate Salt] (X6-[Thr(3ξ)][Dab][Dab][Dab][dF]L[Dab][Dab][Thr(3ξ)]; lactam 3-C)",,,,,,,,,,,,"MIC (K. pneumoniae NCTC7427; Table 4): 1 micrograms/mL; MIC (A. baumannii NCTC7844; Table 4): 16 micrograms/mL; MIC (E. coli NCTC9001; Table 4): 2 micrograms/mL; MIC (E. coli ATCC25922; Table 4): 2 micrograms/mL; MIC (E. coli ATCC700928; Table 4): 0.5 micrograms/mL; MIC (P. aeruginosa ATCC10145; Table 4): 2 micrograms/mL; MIC (P. aeruginosa ATCC27853; Table 4): 0.5 micrograms/mL; MIC ([1]; P. aeruginosa ATCCCRM-9027, Table 4): 0.25 micrograms/mL"
"CC(C)C[C@@H]1NC(=O)[C@@H](Cc2ccccc2)NC(=O)[C@H](CCN)NC(=O)[C@@H](NC(=O)[C@H](CCN)NC(=O)[C@@H](NC(=O)CCCN(C)C)C(C)O)CCNC(=O)[C@H](C(C)O)NC(=O)[C@H](CCN)NC(=O)[C@H](CCN)NC1=O (some centres unmarked) [Example 18, 4-(N,N-dimethylamino)-butanoyl polymyxin B nonapeptide] (X4-[Thr(3ξ)][Dab][Dab][Dab][dF]L[Dab][Dab][Thr(3ξ)]; lactam 3-C)",>32,0.5,0.125,1,16,8,4,0.5,0.25,0.125,2,MIC [2]: 8 micrograms/mL; MIC (E. coli ATCC700928; [3]): 0.25 micrograms/mL; MIC (E. coli NCTC12900): 4 micrograms/mL
"CC(C)C[C@@H]1NC(=O)[C@@H](Cc2ccccc2)NC(=O)[C@H](CCN)NC(=O)[C@@H](NC(=O)[C@H](CCN)NC(=O)[C@@H](NC(=O)CC[C@@H](N)C(C)C)C(C)O)CCNC(=O)[C@H](C(C)O)NC(=O)[C@H](CCN)NC(=O)[C@H](CCN)NC1=O (stereo partly drawn) [Example 29, 4-(R)-Amino-5-methylhexanoyl polymyxin B nonapeptide] (X5-[Thr(3ξ)][Dab][Dab][Dab][dF]L[Dab][Dab][Thr(3ξ)]; lactam 3-C)",>32,0.5,0.5,2,1,2,0.5,8,0.5,0.125,0.5,MIC (E. coli ATCC700928; [3]): 2 micrograms/mL; MIC (P. aeruginosa ATCC 9721): 0.25 micrograms/mL
"CC(C)C[C@@H]1NC(=O)[C@@H](Cc2ccccc2)NC(=O)[C@H](CCN)NC(=O)[C@@H](NC(=O)[C@H](CCN)NC(=O)[C@@H](NC(=O)CC[C@H](C)N)C(C)O)CCNC(=O)[C@H](C(C)O)NC(=O)[C@H](CCN)NC(=O)[C@H](CCN)NC1=O (stereo partly drawn) [Example 31, 4-(S)-aminopentanoyl polymyxin B nonapeptide] ({GABA(4S-Me)}-[Thr(3ξ)][Dab][Dab][Dab][dF]L[Dab][Dab][Thr(3ξ)]; lactam 3-C)",,0.5,,8,,,,>32,,0.25,,
"CC(C)C[C@@H]1NC(=O)[C@@H](Cc2ccccc2)NC(=O)[C@H](CCN)NC(=O)[C@@H](NC(=O)[C@H](CCN)NC(=O)[C@@H](NC(=O)[C@H]2CC[C@H](O)CC2)C(C)O)CCNC(=O)[C@H](C(C)O)NC(=O)[C@H](CCN)NC(=O)[C@H](CCN)NC1=O (stereo partly drawn) [Example 32, trans-4-hydroxycyclohexanecarbonyl polymyxin B nonapeptide] (X8-[Thr(3ξ)][Dab][Dab][Dab][dF]L[Dab][Dab][Thr(3ξ)]; lactam 3-C)",,4,,16,,,,8,,0.125,,
"CC(C)C[C@@H]1NC(=O)[C@@H](Cc2ccccc2)NC(=O)[C@H](CCN)NC(=O)[C@@H](NC(=O)[C@H](CCN)NC(=O)[C@@H](NC(=O)CCO)C(C)O)CCNC(=O)[C@H](C(C)O)NC(=O)[C@H](CCN)NC(=O)[C@H](CCN)NC1=O (some centres unmarked) [Example 33, 3-Hydroxypropanoyl polymyxin B nonapeptide] ({Propanoyl(3-OH)}-[Thr(3ξ)][Dab][Dab][Dab][dF]L[Dab][Dab][Thr(3ξ)]; lactam 3-C)",,4,,>32,,,,>32,,0.5,,
"CC(C)C[C@@H]1NC(=O)[C@@H](Cc2ccccc2)NC(=O)[C@H](CCN)NC(=O)[C@@H](NC(=O)[C@H](CCN)NC(=O)[C@@H](NC(=O)C(O)C2CCCCC2)C(C)O)CCNC(=O)[C@H](C(C)O)NC(=O)[C@H](CCN)NC(=O)[C@H](CCN)NC1=O (stereo partly drawn) [Example 34, 2-(R,S)-(2-Hydroxy-2-cyclohexyl) ethanoyl polymyxin B nonapeptide] (ξHexahydromandeloyl-[Thr(3ξ)][Dab][Dab][Dab][dF]L[Dab][Dab][Thr(3ξ)]; lactam 3-C)",>32,1,0.5,1,1,2,0.25,0.5,0.5,0.125,0.5,MIC (E. coli NCTC9001; [3]): 8 micrograms/mL; MIC (E. coli NCTC12900): 8 micrograms/mL; MIC (P. aeruginosa ATCC 9721): 0.25 micrograms/mL
"CCCCCCCC(=O)N[C@H](C(=O)N[C@H](CO)C(=O)N[C@H]1CCNC(=O)[C@H]([C@@H](C)O)NC(=O)[C@H](CCN)NC(=O)[C@H](CCN)NC(=O)[C@H](CC(C)C)NC(=O)[C@@H](Cc2ccccc2)NC(=O)[C@H](CCN)NC1=O)[C@@H](C)O [NAB739, reference compound] (Octanoyl-T[dS][Dab][Dab][dF]L[Dab][Dab]T; lactam 3-C; N-terminus assumed)",,2,,1,,,,2,,1,,

# Reference: patent publication US9234006B2, “Compounds” (Novacta Biosystems Limited, priority 2011, dated 2016)
